# Measured values taken from article PMC9609767, “Radiosynthesis and Preclinical Evaluation of an ^18F-Labeled Triazolopyridopyrazine-Based Inhibitor for Neuroimaging of the Phosphodiesterase 2A (PDE2A)” (Pharmaceuticals, 2022).
# What was measured:
# [1] = Chemical stability of the radiotracer in PBS and n-octanol; format: physicochemical; conditions: 30 °C, 60 min, radio-HPLC
# Procedure: In order to estimate the lipophilicity of [^18F]11, the partition coefficient was determined by the shake flask method using n-octanol and phosphate-buffered saline as partition system. […] The chemical stability of the radiotracer was investigated by incubation in phosphate-buffered saline (PBS) and n-octanol at 30 °C.
# The determination of stability and logD value has been performed according to the procedures described by Sadeghzadeh and Wenzel et al..
# [2] = In vivo metabolism in SPRD rats (radio-HPLC of plasma and brain); conditions: rat, 30 min p.i., i.v.
# Procedure: Metabolism in rats has been investigated in the animals applied in PET studies (protocol reported below). In brief, blood was taken from two anesthetized female SPRD rats 30 min after intravenous injection of [^18F]11 followed by decapitation and isolation of the brains. The blood samples and the brains were processed as described above.
# Protein precipitation was performed by the addition of ice-cold ACN/H2O (9:1, v/v) in a ratio of 4:1 (v/v) of organic solvent to plasma or brain homogenate, respectively. The samples were vortexed for 3 min, equilibrated on ice for 3 min, and centrifuged for 10 min at 10,000 rpm and the supernatant collected. The precipitates were washed with 100 μL of the solvent mixture and subjected to the same procedure. The combined supernatants were concentrated at 70 °C under argon flow to a final volume of approximately 100 μL and analysed by analytical radio-HPLC with a gradient system (see radiochemistry general section). The peak corresponding to the radiotracer in the radio-chromatogram was identified by co-injecting the sample with the reference compound 11. To determine the percentage of activity in the supernatants compared to total activity, aliquots of each step as well as the precipitates were quantified by an automated gamma counter (1480 WIZARD, Perkin Elmer, Turku, Finland). […]
# [3] = Dynamic PET/MR study in CD-1 mouse; format: in vivo; conditions: for Uptake (SUVmean): uncorrected for metabolites
# Procedure: (§1) For the time of the experiments, one female CD-1 mouse (10 weeks; 30.5 g) and one female SPRD rat (9 weeks; 256 g) were kept in a dedicated climatic chamber with free access to water and food under a 12:12 h dark:light cycle at a constant temperature (24 °C). The animals were anesthetized (Anaesthesia Unit U-410, agntho’s, Lidingö, Sweden) with isoflurane (2.0%, 300 mL/min) delivered in a 60% oxygen/40% air mixture (Gas Blender 100 Series, MCQ instruments, Rome, Italy) and their body temperature maintained at 37 °C with a thermal bed system for the duration of the PET studies. A dynamic PET scan (PET/MR 1T, Mediso nanoScan®, Hungary) started 20 s before intravenous injection into the tail vein of [^18F]11 and was performed in mouse for 60 min (4.9 MBq in 150 μL isotonic saline; 20.5 nmol/kg; Am: 8.9 GBq/μmol, EOS) in rat for 30 min (29.7 MBq in 400 μL isotonic saline; 12 nmol/kg; Am: 11 GBq/μmol, EOS). Each PET image was corrected for random coincidences, dead time, scatter and attenuation (AC), based on a whole body (WB) MR scan. The reconstruction parameters for the list mode data were 3D-ordered subset expectation maximization (OSEM), 4 iterations, 6 subsets, energy window: 400–600 keV, coincidence mode: 1–5, ring difference: 81. Preceding the PET scan a T1 weighted WB gradient echo sequence (TR/TE: 20/6.4 ms, NEX: 1, FA: 25, FOV: 64 × 64 mm, Matrix: 128 × 128, STh: 0.5 mm) was performed for AC and anatomical orientation. PET Images were analyzed with PMOD (PMOD Technologies LLC, v. 4.1, Zurich, Switzerland). The respective brain regions were identified using the mouse brain atlas template Ma-Benveniste-Mirrione-T2 or the rat brain atlas template Schwarz-T2. The regional activity data (radioactivity concentration, kBq/mL) were normalized to the injected dose (MBq) and corrected for the animal weight (g) to provide standardized uptake values (SUV, g/mL). Finally, the results of the PETscans are expressed as mean SUV of the respective region of interest ROI.
# [4] = Dynamic PET/MR study in SPRD rat; format: in vivo
# Procedure: as §1
structure (smiles),measurement,setting,value
CCCC(O)c1ccc([18F])c(-c2nnc3c(C)nc4ccc(C5CC5)nc4n23)c1 (stereo not drawn) [[^18F]11],chemical stability,[1],stable
same,fraction of non-metabolized radiotracer in brain,[2],66%
same,fraction of non-metabolized radiotracer in plasma,[2],about 50%
same,maximum SUV in small intestine,[3]; 60 min p.i.,~ 35 SUV
same,"SUV in bladder, spleen, muscle, gallbladder, kidney, and liver",[3]; all time points investigated,< 5 SUV
same,Uptake (SUVmean),"[3]; bladder, 5 min",0.10 SUV
same,Uptake (SUVmean),"[3]; bladder, 15 min",0.08 SUV
same,Uptake (SUVmean),"[3]; bladder, 30 min",0.10 SUV
same,Uptake (SUVmean),"[3]; bladder, 45 min",0.07 SUV
same,Uptake (SUVmean),"[3]; bladder, 60 min",0.06 SUV
same,Uptake (SUVmean),"[3]; blood, 5 min",0.93 SUV
same,Uptake (SUVmean),"[3]; blood, 15 min",0.56 SUV
same,Uptake (SUVmean),"[3]; blood, 30 min",0.46 SUV
same,Uptake (SUVmean),"[3]; blood, 45 min",0.34 SUV
same,Uptake (SUVmean),"[3]; blood, 60 min",0.32 SUV
same,Uptake (SUVmean),"[3]; bones, 5 min",0.71 SUV
same,Uptake (SUVmean),"[3]; bones, 15 min",0.47 SUV
same,Uptake (SUVmean),"[3]; bones, 30 min",0.31 SUV
same,Uptake (SUVmean),"[3]; bones, 45 min",0.23 SUV
same,Uptake (SUVmean),"[3]; bones, 60 min",0.20 SUV
same,Uptake (SUVmean),"[3]; caecum, 5 min",0.10 SUV
same,Uptake (SUVmean),"[3]; caecum, 15 min",0.12 SUV
same,Uptake (SUVmean),"[3]; caecum, 30 min",0.11 SUV
same,Uptake (SUVmean),"[3]; caecum, 45 min",0.11 SUV
same,Uptake (SUVmean),"[3]; caecum, 60 min",0.16 SUV
same,TAC peak value (SUV),"[3]; cerebellum, at 0.8 min",0.61 SUV
same,TAC peak value (SUV),"[3]; cortex, at 2.8 min",0.47 SUV
same,Uptake (SUVmean),"[3]; gallbladder, 5 min",1.41 SUV
same,Uptake (SUVmean),"[3]; gallbladder, 15 min",1.78 SUV
same,Uptake (SUVmean),"[3]; gallbladder, 30 min",1.46 SUV
same,Uptake (SUVmean),"[3]; gallbladder, 45 min",1.32 SUV
same,Uptake (SUVmean),"[3]; gallbladder, 60 min",1.34 SUV
same,Uptake (SUVmean),"[3]; heart, 5 min",1.11 SUV
same,Uptake (SUVmean),"[3]; heart, 15 min",0.65 SUV
same,Uptake (SUVmean),"[3]; heart, 30 min",0.52 SUV
same,Uptake (SUVmean),"[3]; heart, 45 min",0.37 SUV
same,Uptake (SUVmean),"[3]; heart, 60 min",0.35 SUV
same,TAC peak value (SUV),"[3]; hippocampus, at 2.8 min",0.70 SUV
same,Uptake (SUVmean),"[3]; kidney left, 5 min",2.79 SUV
same,Uptake (SUVmean),"[3]; kidney left, 15 min",2.37 SUV
same,Uptake (SUVmean),"[3]; kidney left, 30 min",1.61 SUV
same,Uptake (SUVmean),"[3]; kidney left, 45 min",1.18 SUV
same,Uptake (SUVmean),"[3]; kidney left, 60 min",1.17 SUV
same,Uptake (SUVmean),"[3]; liver, 5 min",3.40 SUV
same,Uptake (SUVmean),"[3]; liver, 15 min",4.16 SUV
same,Uptake (SUVmean),"[3]; liver, 30 min",3.62 SUV
same,Uptake (SUVmean),"[3]; liver, 45 min",3.17 SUV
same,Uptake (SUVmean),"[3]; liver, 60 min",3.00 SUV
same,Uptake (SUVmean),"[3]; lung, 5 min",0.65 SUV
same,Uptake (SUVmean),"[3]; lung, 15 min",0.43 SUV
same,Uptake (SUVmean),"[3]; lung, 30 min",0.33 SUV
same,Uptake (SUVmean),"[3]; lung, 45 min",0.25 SUV
same,Uptake (SUVmean),"[3]; lung, 60 min",0.25 SUV
same,Uptake (SUVmean),"[3]; muscle, 5 min",0.63 SUV
same,Uptake (SUVmean),"[3]; muscle, 15 min",0.49 SUV
same,Uptake (SUVmean),"[3]; muscle, 30 min",0.35 SUV
same,Uptake (SUVmean),"[3]; muscle, 45 min",0.26 SUV
same,Uptake (SUVmean),"[3]; muscle, 60 min",0.21 SUV
same,Uptake (SUVmean),"[3]; small intestine, 5 min",2.10 SUV
same,Uptake (SUVmean),"[3]; small intestine, 15 min",9.48 SUV
same,Uptake (SUVmean),"[3]; small intestine, 30 min",20.64 SUV
same,Uptake (SUVmean),"[3]; small intestine, 45 min",29.65 SUV
same,Uptake (SUVmean),"[3]; small intestine, 60 min",35.11 SUV
same,Uptake (SUVmean),"[3]; spleen, 5 min",0.48 SUV
same,Uptake (SUVmean),"[3]; spleen, 15 min",0.59 SUV
same,Uptake (SUVmean),"[3]; spleen, 30 min",0.45 SUV
same,Uptake (SUVmean),"[3]; spleen, 45 min",0.30 SUV
same,Uptake (SUVmean),"[3]; spleen, 60 min",0.24 SUV
same,Uptake (SUVmean),"[3]; stomach, 5 min",0.15 SUV
same,Uptake (SUVmean),"[3]; stomach, 15 min",0.18 SUV
same,Uptake (SUVmean),"[3]; stomach, 30 min",0.19 SUV
same,Uptake (SUVmean),"[3]; stomach, 45 min",0.17 SUV
same,Uptake (SUVmean),"[3]; stomach, 60 min",0.13 SUV
same,TAC peak value (SUV),"[3]; striatum, at 2.8 min",0.71 SUV
same,peak value of brain time-activity curve (SUV),"[3]; whole brain, at 2.8 min p.i.",0.55 SUV
same,SUV caudate putamen,[4]; 15 min p.i.,0.51 SUV
same,SUV cerebellum,[4]; 15 min p.i.,0.40 SUV
same,peak value of brain uptake (SUV),"[4]; whole brain, at 0.6 min",0.97 SUV
